# According to ChEMBL document CHEMBL4627293, “Synthesis and in vitro activity of asymmetric indole-based bisamidine compounds against Gram-positive and Gram-negative pathogens” (2020):
# What was measured:
# Format in all cases: functional
# Escherichia coli = test: Antimicrobial activity against Escherichia coli ATCC 25922
# Klebsiella pneumoniae [1] = test: Antimicrobial activity against Klebsiella pneumoniae 7
# Staphylococcus aureus [2] = test: Antimicrobial activity against methicillin-sensitive Staphylococcus aureus ATCC 29213
# Proteus vulgaris = test: Antimicrobial activity against Proteus vulgaris ATCC 29905
# [3] = test system: Staphylococcus epidermidis; test: Antimicrobial activity against methicillin-susceptible Staphylococcus epidermidis ATCC 12228
# Klebsiella pneumoniae [4] = test: Antimicrobial activity against ESBL-producing Klebsiella pneumoniae ATCC 700603
# [5] = test system: Acinetobacter calcoaceticus; test: Antimicrobial activity against Acinetobacter calcoaceticus ATCC 19606
# Klebsiella pneumoniae [6] = test: Antimicrobial activity against NDM-1 producing Klebsiella pneumoniae ATCC BAA-2146
# Pseudomonas aeruginosa = test: Antimicrobial activity against Pseudomonas aeruginosa ATCC 27853
# Enterococcus faecalis [7] = test: Antimicrobial activity against Vancomycin-sensitive Enterococcus faecalis ATCC 29212
# Enterococcus faecalis [8] = test: Antimicrobial activity against Vancomycin-resistant Enterococcus faecalis ATCC 51299
# Providencia rettgeri = test: Antimicrobial activity against Providencia rettgeri ATCC 31052
# Staphylococcus aureus [9] = test: Antimicrobial activity against methicillin- resistant Staphylococcus aureus ATCC 33591
# Citrobacter freundii = test: Antimicrobial activity against Citrobacter freundii ATCC 43864
# Enterococcus faecium = test: Antimicrobial activity against vancomycin-resistant Enterococcus faecium ATCC 700221
# Klebsiella aerogenes = test: Antimicrobial activity against Enterobacter aerogenes ATCC 45102
Structure (SMILES),MIC (Escherichia coli) [µg/mL],MIC (Klebsiella pneumoniae [1]) [µg/mL],MIC (Staphylococcus aureus [2]) [µg/mL],MIC (Proteus vulgaris) [µg/mL],MIC [3] [µg/mL],MIC (Klebsiella pneumoniae [4]) [µg/mL],MIC [5] [µg/mL],MIC (Klebsiella pneumoniae [6]) [µg/mL],MIC (Pseudomonas aeruginosa) [µg/mL],MIC (Enterococcus faecalis [7]) [µg/mL],MIC (Enterococcus faecalis [8]) [µg/mL],MIC (Providencia rettgeri) [µg/mL],MIC (Staphylococcus aureus [9]) [µg/mL],MIC (Citrobacter freundii) [µg/mL],MIC (Enterococcus faecium) [µg/mL],MIC (Klebsiella aerogenes) [µg/mL]
CN(C)C(=N)c1ccc2cc(-c3ccc(Oc4ccc(-c5cc6ccc(C(=N)N(C)C)cc6[nH]5)cc4)cc3)[nH]c2c1,4,8,0.25,8,0.125,8,> 128,8,128,0.5,1,8,0.25,8,2,–
CNC(=N)c1ccc2cc(-c3ccc(Oc4ccc(-c5cc6ccc(C(=N)NC)cc6[nH]5)cc4)cc3)[nH]c2c1,128,–,1,> 128,–,> 128,–,> 128,> 128,1,1,> 128,1,> 128,–,> 128
CNC(=N)c1ccc2cc(-c3ccc(Oc4ccc(-c5cc6ccc(C(=N)NC)cc6[nH]5)c(C(F)(F)F)c4)cc3)[nH]c2c1,4,8,0.5,16,0.25,16,32,8,64,0.5,1,32,0.5,8,0.5,–
CC(C)NC(=N)c1ccc2cc(-c3ccc(Oc4ccc(-c5cc6ccc(C(=N)NC(C)C)cc6[nH]5)nc4)cc3)[nH]c2c1,2,8,0.25,8,0.125,8,16,8,64,0.25,0.5,4,0.125,4,0.25,–
CNC(=N)c1ccc2cc(-c3ccc(Oc4ccc(-c5cc6ccc(C(=N)NC)cc6[nH]5)c(OC)c4)cc3)[nH]c2c1,16,64,1,128,0.25,128,> 128,32,> 128,0.5,0.5,> 128,1,32,1,–
CNC(=N)c1ccc2cc(-c3ccc(Oc4ccc(-c5cc6ccc(C(=N)NC)cc6[nH]5)c(Cl)c4)cc3)[nH]c2c1,64,64,4,64,2,64,128,64,128,16,16,128,4,64,8,–
CN(C)C(=N)c1ccc2cc(-c3ccc(Oc4ccc(-c5cc6ccc(C(=N)N(C)C)cc6[nH]5)c(C(F)(F)F)c4)cn3)[nH]c2c1,8,32,1,32,0.5,32,> 128,32,> 128,2,2,128,0.5,16,1,–
CC(C)NC(=N)c1ccc2cc(-c3ccc(Oc4ccc(-c5cc6ccc(C(=N)NC(C)C)cc6[nH]5)cn4)cc3)[nH]c2c1,4,8,0.25,16,0.25,8,64,16,32,1,1,16,0.25,8,0.25,–
CC(C)NC(=N)c1ccc2cc(-c3ccc(Oc4ccc(-c5cc6ccc(C(=N)NC(C)C)cc6[nH]5)c(Cl)c4)cc3)[nH]c2c1,128,> 128,8,> 128,1,> 128,> 128,> 128,> 128,16,16,> 128,8,> 128,8,–
CN(C)C(=N)c1ccc2cc(-c3ccc(Oc4ccc(-c5cc6ccc(C(=N)N(C)C)cc6[nH]5)c(C(F)(F)F)c4)cc3)[nH]c2c1,64,> 128,2,128,2,> 128,> 128,> 128,> 128,8,8,> 128,2,64,8,–
CC(C)NC(=N)c1ccc2cc(-c3ccc(Oc4ccc(-c5cc6ccc(C(=N)NC(C)C)cc6[nH]5)c(C(F)(F)F)c4)cc3)[nH]c2c1,16,16,2,16,2,16,64,16,32,2,2,64,2,16,2,–
C/N=C(\NC)c1ccc2cc(-c3ccc(Oc4ccc(-c5cc6ccc(C(=N)NC)cc6[nH]5)cc4)cc3)[nH]c2c1,16,–,0.5,128,–,64,–,32,64,1,0.25,128,0.25,128,–,64
CNC(=N)c1ccc2cc(-c3ccc(Oc4ccc(-c5cc6ccc(C(=N)NC)cc6[nH]5)nc4)cc3)[nH]c2c1,16,64,2,128,0.25,64,> 128,64,64,2,2,128,2,16,1,–
CNC(=N)c1ccc2cc(-c3ccc(Oc4ccc(-c5cc6ccc(C(=N)NC)cc6[nH]5)c(C(F)(F)F)c4)cn3)[nH]c2c1,8,16,0.5,64,0.25,32,64,16,64,1,1,64,0.5,16,0.5,–
CN(C)C(=N)c1ccc2cc(-c3ccc(Oc4ccc(-c5cc6ccc(C(=N)N(C)C)cc6[nH]5)c(Cl)c4)cc3)[nH]c2c1,32,> 128,8,128,2,> 128,> 128,128,> 128,16,16,> 128,2,64,16,–
CN(C)C(=N)c1ccc2cc(-c3ccc(Oc4ccc(-c5cc6ccc(C(=N)N(C)C)cc6[nH]5)cn4)cc3)[nH]c2c1,4,4,0.5,8,0.25,8,128,8,64,2,2,8,0.25,4,1,–
CC(C)NC(=N)c1ccc2cc(-c3ccc(Oc4ccc(-c5cc6ccc(C(=N)NC(C)C)cc6[nH]5)c(C(F)(F)F)c4)cn3)[nH]c2c1,8,16,0.5,16,0.5,16,32,16,32,0.5,0.5,32,0.5,8,0.5,–
CNC(=N)c1ccc2cc(-c3ccc(Oc4ccc(-c5cc6ccc(C(=N)NC)cc6[nH]5)cn4)cc3)[nH]c2c1,16,128,0.25,> 128,0.125,> 128,128,> 128,> 128,1,1,> 128,0.25,128,0.25,–
COc1cc(Oc2ccc(-c3cc4ccc(C(=N)NC(C)C)cc4[nH]3)cc2)ccc1-c1cc2ccc(C(=N)NC(C)C)cc2[nH]1,16,64,0.25,64,0.125,64,> 128,64,128,0.25,1,64,0.25,32,0.25,–
CN[C@H](CC(C)C)C(=O)N[C@H]1C(=O)N[C@@H](CC(N)=O)C(=O)N[C@H]2C(=O)N[C@H]3C(=O)N[C@H](C(=O)N[C@H](C(=O)O)c4cc(O)cc(O)c4-c4cc3ccc4O)[C@H](O)c3ccc(c(Cl)c3)Oc3cc2cc(c3O[C@@H]2O[C@H](CO)[C@@H](O)[C@H](O)[C@H]2O[C@H]2C[C@](C)(N)[C@H](O)[C@H](C)O2)Oc2ccc(cc2Cl)[C@H]1O [VANCOMYCIN],–,–,–,–,0.5,–,–,–,–,1,–,–,–,–,–,–
